We go through 24 compounds from patent US20260285875A1, “INHIBITORS OF PARG” (858 Therapeutics, Inc., priority 2023, published 2026).

In this test the target is T1, cellular PARG (Homo sapiens, UniProt Q86W56).
T1 construct: endogenous in cells; host or cells: HeLa
Nature of the test: Nuclear PAR accumulation assay (immunofluorescence high-content imaging, MMS-treated HeLa cells). The format is cell-based. Conditions: 1 hour compound then MMS 50 μg/mL for an additional hour. An outline of the steps: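 HeLa cells pretreated with compound for 1 h at 37° C, then given 50 μg/mL MMS for another hour. After methanol fixation, PAR was immunostained with DAPI nuclear counterstain; per-nucleus intensity and percent PAR-positive cells were imaged at 20× (≥1,000 cells/well). IC50 from four-parameter logistic fit.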

T1 sequence (Q86W56 whole entry): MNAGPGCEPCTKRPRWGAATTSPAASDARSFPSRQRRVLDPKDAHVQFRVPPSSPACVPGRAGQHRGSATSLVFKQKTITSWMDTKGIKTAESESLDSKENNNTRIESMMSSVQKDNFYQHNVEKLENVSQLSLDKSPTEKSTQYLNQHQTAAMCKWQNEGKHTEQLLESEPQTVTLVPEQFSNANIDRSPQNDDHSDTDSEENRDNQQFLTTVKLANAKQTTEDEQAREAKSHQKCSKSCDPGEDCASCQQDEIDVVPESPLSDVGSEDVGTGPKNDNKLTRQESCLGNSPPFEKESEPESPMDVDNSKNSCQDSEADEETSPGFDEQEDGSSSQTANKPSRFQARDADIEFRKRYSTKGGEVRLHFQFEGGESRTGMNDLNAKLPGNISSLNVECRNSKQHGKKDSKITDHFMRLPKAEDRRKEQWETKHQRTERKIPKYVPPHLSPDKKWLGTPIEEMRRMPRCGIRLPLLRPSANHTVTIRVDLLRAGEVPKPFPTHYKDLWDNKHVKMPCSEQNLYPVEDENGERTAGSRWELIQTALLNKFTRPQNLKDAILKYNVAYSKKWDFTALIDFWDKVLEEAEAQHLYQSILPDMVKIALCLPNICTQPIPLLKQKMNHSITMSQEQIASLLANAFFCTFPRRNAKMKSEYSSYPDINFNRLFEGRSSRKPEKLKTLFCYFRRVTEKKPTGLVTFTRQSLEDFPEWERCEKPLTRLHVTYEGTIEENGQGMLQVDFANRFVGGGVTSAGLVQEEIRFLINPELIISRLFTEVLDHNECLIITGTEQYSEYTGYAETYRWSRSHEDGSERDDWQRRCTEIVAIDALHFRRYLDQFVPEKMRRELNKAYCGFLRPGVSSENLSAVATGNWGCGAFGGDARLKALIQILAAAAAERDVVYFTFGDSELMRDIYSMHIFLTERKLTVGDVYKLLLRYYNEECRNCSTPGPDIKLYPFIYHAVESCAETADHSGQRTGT

For orientation: IC50 means the point on the concentration scale where inhibition reaches its midpoint. The compound `CCn1nccc1C#C[C@@H]1CN=C2N(Cc3cnn(C)c3)C(=O)c3cc(S(=O)(=O)NC4(C)CC4)ccc3N21` [Example 207, (R)-1-((1-ethyl-1H-pyrazol-5-yl)ethynyl)-4-((1-methyl-1H-pyrazol-4-yl)methyl)-N-(1-methylcyclopropyl)-5-oxo-1,2,4,5-tetrahydroimidazo[1,2-a]quinazoline-7-sulfonamide] showed an IC50 of less than 100 nM.
`CCN1C(=O)c2cc(S(=O)(=O)NC3(C)CC3)ccc2N2C1=NC[C@H]2C#Cc1c2ncccc2nn1C` [Example 208, (R)-4-ethyl-1-((2-methyl-2H-pyrazolo[4,3-b]pyridin-3-yl)ethynyl)-N-(1-methylcyclopropyl)-5-oxo-1,2,4,5-tetrahydroimidazo[1,2-a]quinazoline-7-sulfonamide] had an IC50 of less than 100 nM.
`CN1C(=O)c2cc(S(=O)(=O)NC3(C)CC3)ccc2N2C1=NCC2C#Cc1cnc2cc(C(F)(F)F)cnn12` (stereo not drawn) [Example 209, 4-methyl-N-(1-methylcyclopropyl)-5-oxo-1-((7-(trifluoromethyl)imidazo[1,2-b]pyridazin-3-yl)ethynyl)-1,2,4,5-tetrahydroimidazo[1,2-a]quinazoline-7-sulfonamide] came in with an IC50 of less than 100 nM.
`Cn1cc(CN2C(=O)c3cc(S(=O)(=O)NC4(C)CC4)ccc3N3C2=NC[C@H]3C#Cc2ccnn2C(F)F)cn1` [Example 210, (R)-1-((1-(difluoromethyl)-1H-pyrazol-5-yl)ethynyl)-4-((1-methyl-1H-pyrazol-4-yl)methyl)-N-(1-methylcyclopropyl)-5-oxo-1,2,4,5-tetrahydroimidazo[1,2-a]quinazoline-7-sulfonamide]: the IC50 is less than 100 nM.
`[2H]C([2H])([2H])n1nccc1C#C[C@@H]1CN=C2N(Cc3cnn(C)c3)C(=O)c3cc(S(=O)(=O)NC4(C)CC4)ccc3N21` [Example 211, (R)-4-((1-methyl-1H-pyrazol-4-yl)methyl)-1-((1-(methyl-d3)-1H-pyrazol-5-yl)ethynyl)-N-(1-methylcyclopropyl)-5-oxo-1,2,4,5-tetrahydroimidazo[1,2-a]quinazoline-7-sulfonamide] displayed an IC50 of less than 100 nM.
`[2H]C([2H])(c1cnn(C)c1)N1C(=O)c2cc(S(=O)(=O)NC3(C)CC3)c(F)cc2N2C1=N[C@H]1CCC[C@H]12` [Example 212, (7aS,10aR)-2-fluoro-6-((1-methyl-1H-pyrazol-4-yl)methyl-d2)-N-(1-methylcyclopropyl)-5-oxo-6,7a,8,9,10,10a-hexahydro-5H-cyclopenta[4,5]imidazo[1,2-a]quinazoline-3-sulfonamide] came in with an IC50 of less than 100 nM.
`[2H]C([2H])(c1cnn(C)c1)N1C(=O)c2cc(S(=O)(=O)NC3(C)CC3)c(OC)cc2N2C1=N[C@H]1CCC[C@H]12` [Example 213, (7aS,10aR)-2-methoxy-6-((1-methyl-1H-pyrazol-4-yl)methyl-d2)-N-(1-methylcyclopropyl)-5-oxo-6,7a,8,9,10,1Oa-hexahydro-5H-cyclopenta[4,5]imidazo[1,2-a]quinazoline-3-sulfonamide] gave an IC50 of 100 to 1000 nM.
Consider `[2H]C([2H])(c1cnn(C)c1)N1C(=O)c2cc(S(=O)(=O)NC3(C)CC3)c(N(C)C)cc2N2C1=N[C@H]1CCC[C@H]12` [Example 214, (7aS,10aR)-2-(dimethylamino)-6-((1-methyl-1H-pyrazol-4-yl)methyl-d2)-N-(1-methylcyclopropyl)-5-oxo-6,7a,8,9,10,10a-hexahydro-5H-cyclopenta[4,5]imidazo[1,2-a]quinazoline-3-sulfonamide], for which the 50% inhibitory concentration (IC50) was 1000 to 10000 nM.
The compound `CN1C(=O)c2cc(S(=O)(=O)NC3(C)CC3)c(F)cc2N2C1=NCC2C#Cc1cnc2cccnn12` (stereo not drawn) [Example 215, 8-fluoro-1-(imidazo[1,2-b]pyridazin-3-ylethynyl)-4-methyl-N-(1-methylcyclopropyl)-5-oxo-1,2,4,5-tetrahydroimidazo[1,2-a]quinazoline-7-sulfonamide] had a concentration for half-maximal inhibition (IC50) of less than 100 nM.
In turn, `Cc1cc(C#C[C@@H]2CN=C3N(C)C(=O)c4cc(S(=O)(=O)NC5(C)CC5)ccc4N32)ccn1` [Example 216, (R)-4-methyl-N-(1-methylcyclopropyl)-1-((2-methylpyridin-4-yl)ethynyl)-5-oxo-1,2,4,5-tetrahydroimidazo[1,2-a]quinazoline-7-sulfonamide] yielded an IC50 of less than 100 nM.
In turn, `Cn1cc(CN2C(=O)c3cc(S(=O)(=O)NC4(C)CC4)ccc3N3C2=NC[C@H]3C#Cc2c(F)cnn2C)cn1` [Example 217, (R)-1-((4-fluoro-1-methyl-1H-pyrazol-5-yl)ethynyl)-4-((1-methyl-1H-pyrazol-4-yl)methyl)-N-(1-methylcyclopropyl)-5-oxo-1,2,4,5-tetrahydroimidazo[1,2-a]quinazoline-7-sulfonamide] displayed an IC50 of less than 100 nM.
Compound `Cc1nn(C)cc1C#C[C@@H]1CN=C2N(Cc3cnn(C)c3)C(=O)c3cc(S(=O)(=O)NC4(C)CC4)ccc3N21` [Example 218, (R)-1-((1,3-dimethyl-1H-pyrazol-4-yl)ethynyl)-4-((1-methyl-1H-pyrazol-4-yl)methyl)-N-(1-methylcyclopropyl)-5-oxo-1,2,4,5-tetrahydroimidazo[1,2-a]quinazoline-7-sulfonamide] displayed an IC50 of less than 100 nM.
The value for `C[C@@H]1CON=C2N(Cc3cnn(C)c3)C(=O)c3cc(S(=O)(=O)NC4(C)CC4)ccc3N21` [Example 219, (R)-1-methyl-5-((1-methyl-1H-pyrazol-4-yl)methyl)-N-(1-methylcyclopropyl)-6-oxo-1,2,5,6-tetrahydro-[1,2,4]oxadiazino[4,3-a]quinazoline-8-sulfonamide] was less than 100 nM; that for `C[C@H]1CON=C2N(Cc3cnn(C)c3)C(=O)c3cc(S(=O)(=O)NC4(C)CC4)ccc3N21` [Example 220, (S)-1-methyl-5-((1-methyl-1H-pyrazol-4-yl)methyl)-N-(1-methylcyclopropyl)-6-oxo-1,2,5,6-tetrahydro-[1,2,4]oxadiazino[4,3-a]quinazoline-8-sulfonamide] was 100 to 1000 nM; that for `Cn1cc(CN2C(=O)c3cc(S(=O)(=O)NC4(C)CC4)ccc3N3C2=NC[C@H]3C#Cc2cnc3cccnn23)cn1` [Example 221, (R)-1-(imidazo[1,2-b]pyridazin-3-ylethynyl)-4-((1-methyl-1H-pyrazol-4-yl)methyl)-N-(1-methylcyclopropyl)-5-oxo-1,2,4,5-tetrahydroimidazo[1,2-a]quinazoline-7-sulfonamide] was less than 100 nM.
Consider `[2H]C([2H])(c1cnn(C)c1)N1C(=O)c2cc(S(=O)(=O)NC3(C)CC3)c(NC)cc2N2C1=N[C@H]1CCC[C@H]12` [Example 222, (7aS,10aR)-6-((1-methyl-1H-pyrazol-4-yl)methyl-d2)-2-(methylamino)-N-(1-methylcyclopropyl)-5-oxo-6,7a,8,9,10,10a-hexahydro-5H-cyclopenta[4,5]imidazo[1,2-a]quinazoline-3-sulfonamide], for which the IC50 is less than 100 nM.
On to `C[C@@H]1CN=C2N(Cc3cccnc3C#N)C(=O)c3cc(S(=O)(=O)NC4(C)CC4)c(F)cc3N21` [Example 223, (R)-4-((2-cyanopyridin-3-yl)methyl)-8-fluoro-1-methyl-N-(1-methylcyclopropyl)-5-oxo-1,2,4,5-tetrahydroimidazo[1,2-a]quinazoline-7-sulfonamide], for which the concentration for half-maximal inhibition (IC50) is 100 to 1000 nM.
Take `CN1C(=O)c2cc(S(=O)(=O)NC3(C)CC3)ccc2N2C1=NCC2C#Cc1ccnc(F)c1` (stereo not drawn) [Example 224, 1-((2-fluoropyridin-4-yl)ethynyl)-4-methyl-N-(1-methylcyclopropyl)-5-oxo-1,2,4,5-tetrahydroimidazo[1,2-a]quinazoline-7-sulfonamide]: the IC50 is less than 100 nM.
As for `Cc1cccc(C#CC2CN=C3N(C)C(=O)c4cc(S(=O)(=O)NC5(C)CC5)ccc4N32)n1` (stereo not drawn) [Example 225, 4-methyl-N-(1-methylcyclopropyl)-1-((6-methylpyridin-2-yl)ethynyl)-5-oxo-1,2,4,5-tetrahydroimidazo[1,2-a]quinazoline-7-sulfonamide], the IC50 is less than 100 nM.
On to `CN1C(=O)c2cc(S(=O)(=O)NC3(C)CC3)ccc2N2C1=NCC2C#Cc1ccnc(C(F)(F)F)c1` (stereo not drawn) [Example 226, 4-methyl-N-(1-methylcyclopropyl)-5-oxo-1-((2-(trifluoromethyl)pyridin-4-yl)ethynyl)-1,2,4,5-tetrahydroimidazo[1,2-a]quinazoline-7-sulfonamide], for which the IC50 is 100 to 1000 nM.
In turn, `COc1cc(C#CC2CN=C3N(C)C(=O)c4cc(S(=O)(=O)NC5(C)CC5)ccc4N32)ccn1` (stereo not drawn) [Example 227, 1-((2-methoxypyridin-4-yl)ethynyl)-4-methyl-N-(1-methylcyclopropyl)-5-oxo-1,2,4,5-tetrahydroimidazo[1,2-a]quinazoline-7-sulfonamide] displayed an IC50 of less than 100 nM.
In the case of `CCN1C(=O)c2cc(S(=O)(=O)NC3(C)CC3)ccc2N2C1=NC[C@H]2C#Cc1cc(C2CC2)nn1C` [Example 228, (R)-1-((3-cyclopropyl-1-methyl-1H-pyrazol-5-yl)ethynyl)-4-ethyl-N-(1-methylcyclopropyl)-5-oxo-1,2,4,5-tetrahydroimidazo[1,2-a]quinazoline-7-sulfonamide], the half-maximal inhibitory concentration (IC50) was less than 100 nM.
Turning to `CN1CCN(C2(C#C[C@@H]3CN=C4N(C)C(=O)c5cc(S(=O)(=O)NC6(C)CC6)ccc5N43)CC2)CC1` [Example 229, (R)-4-methyl-N-(1-methylcyclopropyl)-1-((1-(4-methylpiperazin-1-yl)cyclopropyl)ethynyl)-5-oxo-1,2,4,5-tetrahydroimidazo[1,2-a]quinazoline-7-sulfonamide], the IC50 was in the range of 100 to 1000 nM.
As for `C[C@@H]1CN=C2N(Cc3cn(C)nc3C3CC3)C(=O)c3cc(S(=O)(=O)NC4(C)CC4)ccc3N21` [Example 230, (R)-4-((3-cyclopropyl-1-methyl-1H-pyrazol-4-yl)methyl)-1-methyl-N-(1-methylcyclopropyl)-5-oxo-1,2,4,5-tetrahydroimidazo[1,2-a]quinazoline-7-sulfonamide], the figure is less than 100 nM.
